How the values were obtained:
[1] = biological target: cellulose synthase of Acetobacter xylinum, Triton X-100-solubilized enzyme preparation (TS) (Acetobacter xylinum ATCC 53582); test: Con A-Sepharose 4B column chromatography of TS; bound enzyme eluted with 0.3 M methyl alpha-D-mannopyranoside
[2] = biological target: T1, 83 kd polypeptide of cellulose synthase (Komagataeibacter xylinus, UniProt P0CW87); test: Photoaffinity labeling of purified cellulose synthase with [β-32P]5N3UDP-glc; format: binding, Acetobacter xylinum
T1 construct: endogenous in cells; host or cells: Acetobacter xylinum ATCC 53582; membranes solubilized with detergent, enzyme purified by cellulose entrapment
T1 sequence (P0CW87 1-723): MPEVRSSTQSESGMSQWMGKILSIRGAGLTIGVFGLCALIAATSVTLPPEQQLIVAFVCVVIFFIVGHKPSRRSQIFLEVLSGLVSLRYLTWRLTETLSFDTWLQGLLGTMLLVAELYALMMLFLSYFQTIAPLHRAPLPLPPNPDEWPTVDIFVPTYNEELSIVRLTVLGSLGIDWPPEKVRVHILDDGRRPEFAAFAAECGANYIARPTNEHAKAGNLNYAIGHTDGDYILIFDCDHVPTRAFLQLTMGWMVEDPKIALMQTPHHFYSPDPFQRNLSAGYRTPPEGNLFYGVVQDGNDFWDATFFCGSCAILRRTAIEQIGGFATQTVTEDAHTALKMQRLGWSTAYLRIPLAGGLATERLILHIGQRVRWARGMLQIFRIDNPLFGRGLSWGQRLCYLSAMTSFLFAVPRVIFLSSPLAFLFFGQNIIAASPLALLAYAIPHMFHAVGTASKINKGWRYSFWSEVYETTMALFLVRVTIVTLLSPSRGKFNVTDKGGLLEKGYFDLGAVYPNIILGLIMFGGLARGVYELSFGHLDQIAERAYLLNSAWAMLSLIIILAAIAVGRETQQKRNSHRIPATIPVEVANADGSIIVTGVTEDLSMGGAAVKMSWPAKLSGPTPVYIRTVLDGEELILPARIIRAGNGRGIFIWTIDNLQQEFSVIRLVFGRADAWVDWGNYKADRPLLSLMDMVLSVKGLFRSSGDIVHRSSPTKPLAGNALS
T1 sequence (P0CW87 742-1550 partner limits assumed): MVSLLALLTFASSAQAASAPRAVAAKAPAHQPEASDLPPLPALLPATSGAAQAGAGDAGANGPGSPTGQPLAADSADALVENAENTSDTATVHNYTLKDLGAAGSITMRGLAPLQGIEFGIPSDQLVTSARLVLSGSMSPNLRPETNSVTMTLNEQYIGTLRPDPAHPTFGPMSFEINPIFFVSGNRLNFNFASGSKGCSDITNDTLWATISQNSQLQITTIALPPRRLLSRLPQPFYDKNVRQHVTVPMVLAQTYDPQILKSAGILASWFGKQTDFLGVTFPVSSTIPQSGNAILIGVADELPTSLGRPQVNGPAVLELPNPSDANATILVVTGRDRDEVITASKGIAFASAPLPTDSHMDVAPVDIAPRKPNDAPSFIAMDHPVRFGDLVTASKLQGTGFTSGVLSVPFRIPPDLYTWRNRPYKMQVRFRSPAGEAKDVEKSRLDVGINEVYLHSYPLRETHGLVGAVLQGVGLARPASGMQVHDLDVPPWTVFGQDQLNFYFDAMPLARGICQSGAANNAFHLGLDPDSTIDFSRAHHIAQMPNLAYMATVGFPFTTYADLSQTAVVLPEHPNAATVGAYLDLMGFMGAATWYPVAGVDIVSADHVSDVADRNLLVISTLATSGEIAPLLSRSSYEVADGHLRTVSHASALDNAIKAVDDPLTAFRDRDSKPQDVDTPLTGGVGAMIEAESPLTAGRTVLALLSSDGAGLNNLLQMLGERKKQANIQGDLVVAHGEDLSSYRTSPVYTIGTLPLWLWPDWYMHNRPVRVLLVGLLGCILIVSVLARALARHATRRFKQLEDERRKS
Experimental: In addition to 20 μl of activator for cellulose synthase, each reaction mixture contained 50 mM Tris-HCl, 10 mM MgCl2, 1 mM CaCl2, 1 mM EDTA, the indicated protein quantity of enzyme sample, and 20 μM of [β-^32P]5N3UDP-glc (specific activity, 24 mCi/μmol) in a final reaction volume of 50 μl at pH 8.0-8.5. For competition experiments, the competitor, namely UDP-glc, was added at final concentrations of 0, 50, 100, and 300 μM, respectively. For saturation studies, [B-^32P]5N3UDP-glc was added at final concentrations of 20, 50, 100, 300 and 500 μM, respectively. […] Reactions were terminated by the addition of 0.3 ml of 7% perchloric acid. […] The Coomassie blue stained gel was dried and autoradiographed. Autoradiography was performed at −80° C. with Kodak X-Omat AR film and a Dupont Cronex intensifying screen. The molecular mass standards (Bio-Rad) were phosphorylase b (97kd), bovine serum albumin (66 kd), ovalbumin (45 kd), and carbonic anhydrase (31 kd).
The quantitation of the autoradiographs was measured by grey value discrimination of a digitized image (recorded on a Kontron/Zeiss IBAS Image Processing System).

[3] = tested on: DNA from A. xylinum ATCC 53582 and ATCC 23769; test: DNA-DNA hybridization of 17-mer oligonucleotide probes with HindIII-digested total DNA; format: binding, Acetobacter xylinum; conditions: stringent hybridization conditions; HindIII digest
Experimental: Hybridization of the oligonucleotide probes with A. xylinum DNA was carried out using the eight oligonucleotides that were thus synthesized. […] In order to accomplish these studies, total DNA from A. xylinum ATCC 53582, A. xylinum ATCC 23769, and E. coil HB101 (a common strain of E. coli used in recombinant DNA experiments) was digested with HindIII and the fragments were separated on an agarose gel. After separation, the fragments were transferred by capillary action to a nylon membrane (GeneScreen; NEN Research Products) according to the procedure of Reed and Mann (1985). The DNA thus transferred was next hybridized with the ^32P-labeled oligonucleotide of the invention using standard procedures. Hybridization was accomplished in a solution with 5×SSC [1×SSC: 0.15M NaCl, 0.015M sodium citrate] at 45° C. for 16-24 hours. The filters were then washed with a solution containing reduced salt concentration. In all cases, the hybridization temperature was 5-7° C. below the dissociation temperature as described by Suggs, et al. (1981) applying the formula Td=2(A+T)+4(G+C).

cellulose synthase = biological target: T2, cellulose synthase (Komagataeibacter xylinus, UniProt P0CW87); test: Cellulose synthase enzyme assay (UDP-[14C]glc into alkali-insoluble material); format: biochemical, Acetobacter xylinum
T2 construct: endogenous in cells; host or cells: Acetobacter xylinum; washed or trypsinized membranes, Triton X-100, n-octyl glucoside or digitonin extracts, entrapment pellets EP1 and EP2
T2 sequence (P0CW87 1-723): T1 sequence (P0CW87 1-723)
T2 sequence (P0CW87 742-1550 partner limits assumed): T1 sequence (P0CW87 742-1550 partner limits assumed)
Experimental: Enzyme Assay—Assays contained a final volume of […]: 20 μl of 0.5 M Tris-HCl (pH 9.6) containing 50 mM MgCl2 and 5 mM EDTA, 20 μl of 0.1 M MgCl2, 20 μl of 10 MM CaCl2, 25 μl of TME buffer, 25 μl of H2O, 20 μl of crude Gx, and 50 μl of enzyme sample. […] The reaction was stopped with 2 ml of 0.5 M NaOH, and the radioactivity in alkali-insoluble materials was counted after filtration through glass-fiber filters, as described in detail (Bureau and Brown 1987).
Protein Determination—Protein concentrations were determined according to the method of Bradford (1976), using the protein assay kit of Bio-Rad Laboratories. A modification of the Lowry procedure (Markwell 1978) was used only with membrane preparations. In both cases, bovine serum albumin was used as a standard.

Concanavalin A (Con A) Sepharose 4B (from UniProt P02866 30-281)
total enzyme activity recovered on elution from the Con A-Sepharose column [1]: > 90%

Nc1nc2c(ncn2[C@@H]2O[C@@H]3COP(=O)(O)O[C@H]4[C@@H](O)[C@H](n5cnc6c(=O)[nH]c(N)nc65)O[C@@H]4COP(=O)(O)O[C@H]3[C@H]2O)c(=O)[nH]1 [c-di-GMP, bis-(3′,5′)-cyclic diguanylic acid]
increase of photoincorporation into the 83 kd band in the presence of activator ([2]; purified preparation, FIG. 8 lane 6 vs lane 5): 45%

[N-]=[N+]=Nc1cn([C@@H]2O[C@H](COP(=O)(O)OP(=O)(O)O[C@H]3O[C@H](CO)[C@@H](O)[C@H](O)[C@H]3O)[C@@H](O)[C@H]2O)c(=O)[nH]c1=O [[β-^32P]5N3UDP-glc]
probe concentration at which saturation of photoinsertion was being obtained ([2]; 83 kd protein band): above 100 μM | Kd ([2]; probe 20-500 μM, 83 kd polypeptide, read-out: kd value, saturation of cellulose synthase photolabeling): 68 µM

5′-ATGTCICAGTGGATGGG-3′ [83-1G]
hybridization (homology) with A. xylinum DNA [3]: showed homology with a single HindIII fragment

B1: trypsin: trypsin (EC 3.4.21.4), Sigma (protein, UniProt P00760 24-246, looked up)
Serine protease 1: IVGGYTCGANTVPYQVSLNSGYHFCGGSLINSQWVVSAAHCYKSGIQVRLGEDNINVVEGNEQFISASKSIVHPSYNSNTLNNDIMLIKLKSAASLNSRVASISLPTSCASAGTQCLISGWGNTKSSGTSYPDVLKCLKAPILSDSSCKSAYPGQITSNMFCAGYLEGGKDSCQGDSGGPVVCSGKLQGIVSWGSGCAQKNKPGVYTKVCNYVSWIKQTIASN
effect of trypsin on enzyme activity of washed membranes or TS (cellulose synthase; 30 minutes at 25° C.): did not effect enzyme activity | effect of trypsin on enzyme activity of the EP1 fraction from DS (cellulose synthase; 1 hour at 25° C.): enzyme activity was still maintained

— patent US6541238B1, “Recombinant cellulose synthase” (Board of Regents, The University of Texas Systems, priority 1990, dated 2003)
